We go through 37 compounds from paper PMC11637378, “Optogenetic screening of MCT1 activity implicates a cluster of non-steroidal anti-inflammatory drugs (NSAIDs) as inhibitors of lactate transport” (PLOS ONE, 2024).

Where a name gives a salt, the structure may show the parent alone. Read-outs that look alike come from different tables or passages of the source.

In the series the test system is parent strain (SAWy518).

For `CCC(Cc1c(I)cc(I)c(N)c1I)C(=O)O` (centres unmarked) [IOPANIC ACID], the Offscreen_18hr turned out to be 0.6491, the Offscreen_24hr is given as 0.7855 and the Offscreen_42hr is recorded as 0.8261.

`Oc1ccc2ccccc2c1SSc1c(O)ccc2ccccc12` [IPA-3]: the Offscreen_18hr is recorded as 0.0457, the Offscreen_24hr is given as 0.0481 and the Offscreen_42hr is given as 0.1263.

Consider `CCC(C)n1ncn(-c2ccc(N3CCN(c4ccc(OC[C@H]5CO[C@](Cn6cncn6)(c6ccc(Cl)cc6Cl)O5)cc4)CC3)cc2)c1=O.Cl.Cl` (some centres unmarked) [ITRACONAZOLE HYDROCHLORIDE], for which the Offscreen_18hr is 0.8063, the Offscreen_24hr was 0.8859 and the Offscreen_42hr was 0.9404.

`CC(=O)[C@]1(O)Cc2c(O)c3c(c(O)c2[C@@H](O[C@H]2C[C@H](N)[C@H](O)[C@H](C)O2)C1)C(=O)c1ccccc1C3=O` [Idarubicin HCl]: the Offscreen_18hr is 0.1605, the Offscreen_24hr amounted to 0.1891 and the Offscreen_42hr was determined as 0.402.

For `CC(=O)[C@]1(O)Cc2c(O)c3c(c(O)c2[C@@H](O[C@H]2C[C@H](N)[C@H](O)[C@H](C)O2)C1)C(=O)c1ccccc1C3=O` [Idarubicin], the Offscreen_18hr is on record as 0.154, the Offscreen_24hr amounted to 0.1842 and the Offscreen_42hr came out at 0.3602.

In the case of `O=C1Nc2ccccc2/C1=C1/Nc2ccccc2/C1=N\O` [Indirubin-3'-oxime], the Offscreen_18hr is recorded as 0.6559, the Offscreen_24hr stood at 0.8248 and the Offscreen_42hr was 0.9006.

Consider `CC(C)NNC(=O)c1ccncc1.O=P(O)(O)O` [Iproniazid phosphate, reference compound], for which the Offtarget result was “NO” and the Offtarget_sub is listed as 0.4143.

Take `CCC(C)n1ncn(-c2ccc(N3CCN(c4ccc(OC[C@H]5CO[C@](Cn6cncn6)(c6ccc(Cl)cc6Cl)O5)cc4)CC3)cc2)c1=O` (some centres unmarked) [Itraconazole (Sporanox)]: the Offscreen_18hr came out at 0.7339, the Offscreen_24hr worked out at 0.8546 and the Offscreen_42hr is given as 0.8998.

Take `O=C(O)/C=C/C=C/c1ccccc1` [JUAREZIC ACID]: the Offscreen_18hr is 0.6813, the Offscreen_24hr came to 0.7831 and the Offscreen_42hr came to 0.827.

Take `COc1cc(C)c2c(=O)c(-c3ccccc3)coc2c1` [METHOXYVONE]: the Offscreen_18hr was 0.7685, the Offscreen_24hr was found to be 0.8867 and the Offscreen_42hr was determined as 0.9442.

Consider `Cc1cc(C(C)(C)CC(C)(C)C)ccc1OCCOCC[N+](C)(C)Cc1ccccc1.[Cl-]` [METHYLBENZETHONIUM CHLORIDE], for which the Offscreen_18hr turned out to be 0.7745, the Offscreen_24hr was 0.875 and the Offscreen_42hr is on record as 0.932.

Consider `CC[N+](CC)(CC)CCOc1ccc(/C=C/c2ccccc2)cc1` [MG 624], for which the Offscreen_18hr was found to be 0.5585, the Offscreen_24hr amounted to 0.7684 and the Offscreen_42hr turned out to be 0.9127.

For `O=C(O)[C@]1(Cc2cccc(Nc3nccs3)n2)CC[C@@H](Oc2cccc(Cl)c2F)CC1` [MK-5108 (VX-689)], the Offscreen_18hr came to 0.6785, the Offscreen_24hr turned out to be 0.8599 and the Offscreen_42hr is on record as 0.9444.

With `Cl.O=S(=O)(c1cccc2c(I)cccc12)N1CCCNCC1` [ML-7, reference compound], the Offtarget result is recorded as “NO” and the Offtarget_sub was found to be 0.3788.

For the compound `O=[N+]([O-])/C=C/c1ccc2c(c1)OCO2` [MNS], the Offscreen_18hr is listed as 0.2427, the Offscreen_24hr came out at 0.4675 and the Offscreen_42hr is recorded as 0.9062.

On to `COc1c(C)c2c(c(O)c1C/C=C(\C)CCC(=O)OCCN1CCOCC1)C(=O)OC2` [MYCOPHENOLATE MOFETIL], for which the Offscreen_18hr is 0.5798, the Offscreen_24hr was 0.792 and the Offscreen_42hr is recorded as 0.9179.

In the case of `COc1c(C)c2c(c(O)c1C/C=C(\C)CCC(=O)O)C(=O)OC2` [MYCOPHENOLIC ACID], the Offscreen_18hr stood at 0.6454, the Offscreen_24hr is given as 0.8395 and the Offscreen_42hr is listed as 0.9254.

Regarding `CN(C)c1ccc2nc3ccc(=[N+](C)C)cc-3sc2c1` [Methylene Blue trihydrate], the Offscreen_18hr (parent strain growth reading, 18 hr) worked out at 0.8664. Moreover, where the note is “parent strain growth reading, 24 hr”, the Offscreen_24hr is given as 0.9565. Also, the Offscreen_42hr (parent strain growth reading, 42 hr) was 1.0182.

For `CN(C)c1ccc2nc3ccc(=[N+](C)C)cc-3sc2c1.O.O.O.[Cl-]` [Methylene Blue], the Offscreen_18hr is recorded as 0.8664, the Offscreen_24hr was found to be 0.9565 and the Offscreen_42hr is given as 1.0182.

Regarding `CCN(CC)C(=O)[C@]1(c2ccccc2)C[C@@H]1CN.Cl` [Milnacipran hydrochloride], the Offscreen_18hr is 0.8463, the Offscreen_24hr turned out to be 0.9181 and the Offscreen_42hr is reported as 0.9801.

As for `COc1c(C)c2c(c(O)c1C/C=C(\C)CCC(=O)O)C(=O)OC2` [Mycophenolic (Mycophenolate)], the Offscreen_18hr came to 0.6524, the Offscreen_24hr was 0.8532 and the Offscreen_42hr stood at 0.951.

On to `O=[N+]([O-])c1ccc(O)c2ncccc12` [NITROXOLINE], for which the Offscreen_18hr was 0.0416, the Offscreen_24hr is 0.0414 and the Offscreen_42hr is reported as 0.0729.

For `CC(Cc1ccc(O)c(O)c1)C(C)Cc1ccc(O)c(O)c1` (centres unmarked) [Nordihydroguaiaretic acid, reference compound], the OffScreen_percentage is given as 101.227 percentage, the Offscreen_18hr came out at 0.8169, the Offscreen_24hr was determined as 0.9084 and the Offscreen_42hr is listed as 0.9699. Moreover, the Read_percentage stood at 101.227 percentage.

Turning to `NCC(=O)Nc1ccc(-n2nc(C(F)(F)F)cc2-c2ccc3c(ccc4ccccc43)c2)cc1` [OSU-03012 (AR-12)], the Offscreen_18hr is on record as 0.0821, the Offscreen_24hr worked out at 0.1608 and the Offscreen_42hr is 0.9195.

Consider `O=C(/C=C/c1ccc(O)c(O)c1)OCCc1ccccc1` [PHENETHYL CAFFEATE (CAPE)], for which the Offscreen_18hr was found to be 0.3307, the Offscreen_24hr was found to be 0.5133 and the Offscreen_42hr is on record as 0.8223.

As to `O=C1c2ccccc2C(=O)c2c(O)c(O)cc(O)c21` [PURPURIN], the Offscreen_18hr was determined as 0.5082, the Offscreen_24hr was 0.6741 and the Offscreen_42hr was determined as 0.7778.

Take `CCCc1c(-c2ccc(O)cc2)nn(-c2ccc(O)cc2)c1-c1ccc(O)cc1` [Propylpyrazole triol]: the Read_percentage is recorded as 98.9963 percentage.

For the compound `CO[C@H]1C[C@@H]2CC[C@@H](C)[C@@](O)(O2)C(=O)C(=O)N2CCCC[C@H]2C(=O)O[C@H]([C@H](C)C[C@@H]2CC[C@@H](O)[C@H](OC)C2)CC(=O)[C@H](C)/C=C(\C)[C@@H](O)[C@@H](OC)C(=O)[C@H](C)C[C@H](C)/C=C/C=C/C=C/1C` [Rapamycin], the Offscreen_18hr came to 0.0498, the Offscreen_24hr is recorded as 0.0505 and the Offscreen_42hr stood at 0.0758.

For `Nc1ccc(-c2nc3ccc(-c4nc5cc(N)ccc5[nH]4)cc3[nH]2)cc1` [Ro 90-7501], the Offscreen_18hr came to 0.6647, the Offscreen_24hr was 0.8739 and the Offscreen_42hr is 0.9612.

Turning to `CS(=O)(=O)c1ccc(C2=C(c3ccccc3)C(=O)OC2)cc1` [Rofecoxib, reference compound], the OffScreen_percentage stood at 103.916 percentage, the Offscreen_18hr amounted to 0.8386, the Offscreen_24hr turned out to be 0.9205 and the Offscreen_42hr came out at 0.975. For the same compound, the Read_percentage stood at 103.916.

With `N.N.N.N.N.N.N.N.N.N.N.N.N.N.[Cl-].[Cl-].[Cl-].[Cl-].[Cl-].[Cl-].[O-2].[O-2].[Ru+3].[Ru+3].[Ru+4]` [Ruthenium red], the Offscreen_18hr is 0.6166, the Offscreen_24hr was determined as 0.8198 and the Offscreen_42hr is 0.9382.

In the case of `N#CC[C@@H](C1CCCC1)n1cc(-c2ncnc3[nH]ccc23)cn1` [S-Ruxolitinib (INCB018424)], the Offscreen_18hr was 0.6167, the Offscreen_24hr is recorded as 0.8199 and the Offscreen_42hr is on record as 0.9411.

As to `CC[C@@H](C(=O)[C@@H](C)[C@@H](O)[C@H](C)[C@@H]1O[C@@H]([C@@H](CC)C(=O)[O-])CC[C@@H]1C)[C@H]1OC2(C=C[C@@H](O)[C@]3(CC[C@@](C)([C@H]4CC[C@](O)(CC)[C@H](C)O4)O3)O2)[C@H](C)C[C@@H]1C.[Na+]` (some centres unmarked) [SALINOMYCIN, SODIUM], the Offscreen_18hr is listed as 0.1472, the Offscreen_24hr is 0.2295 and the Offscreen_42hr was 0.8421.

With `NS(=O)(=O)c1ccc(-n2nc(C(F)(F)F)cc2-c2ccc(Cl)cc2)cc1` [SC-236, reference compound], the Offtarget result was “NO” and the Offtarget_sub was 0.2541.

For `CO[C@H]1C[C@@H]2CC[C@@H](C)[C@@](O)(O2)C(=O)C(=O)N2CCCC[C@H]2C(=O)O[C@H]([C@H](C)C[C@@H]2CC[C@@H](O)[C@H](OC)C2)CC(=O)[C@H](C)/C=C(\C)[C@@H](O)[C@@H](OC)C(=O)[C@H](C)C[C@H](C)/C=C/C=C/C=C/1C` [SIROLIMUS], the Offscreen_18hr was 0.341, the Offscreen_24hr came out at 0.5452 and the Offscreen_42hr is on record as 0.8609.

In the case of `Oc1ccc(Nc2nc(-c3ccc(Cl)cc3)cs2)cc1` [SKI II], the Offscreen_18hr worked out at 0.4105, the Offscreen_24hr stood at 0.6287 and the Offscreen_42hr amounted to 0.8658.

As to `CC[C@H](C(=O)[C@H](C)[C@@H](O)[C@@H](C)[C@@H]1O[C@@H]([C@@H](CC)C(=O)O)CC[C@H]1C)[C@H]1O[C@]2(C=C[C@@H](O)[C@]3(CC[C@@](C)([C@H]4CC[C@](O)(CC)[C@H](C)O4)O3)O2)[C@H](C)C[C@H]1C` [Salinomycin (Procoxacin)], the Offscreen_18hr is given as 0.8013, the Offscreen_24hr is listed as 0.892 and the Offscreen_42hr is listed as 0.9461.
